In patent US12138294B2, “Transgenic corn with antifungal peptide AGM182 (DN:0113.18)” (GENVOR, INC., priority 2018, dated 2024):
“Also recorded” adds a separate entry of the source. Bridge positions count the residues as written; N and C are the ends. Peptide text beside a SMILES is read from it.

What was measured:
[1] = system: pre-germinated conidia of A. flavus; conditions: read-out: IC50 against A. flavus; in vitro; pre-germinated conidia of A. flavus 70-GFP treated 60 min with 0-25 μM peptide; colonies counted after 24 h at 30° C.
porcine blood cells = assay: Hemolysis of porcine blood cells
[2] = system: maize (Zea mays L. Hi-II); assay: Phenotype of transgenic maize plants expressing AGM182; conditions: transgenic maize plants vs. isogenic negative or non-transformed control

Molecule	IC50 [1] [µM]	hemolysis of porcine blood cells (porcine blood cells; all concentrations of AGM182)	effect of transgenic expression on plant phenotype and seed weight [2]	hemolysis of porcine blood cells (porcine blood cells; 0.1% Triton-X, positive control) [%]
CC[C@H](C)[C@H](NC(=O)[C@@H]1CSSC[C@H](NC(=O)[C@H](CC(C)C)NC(=O)[C@H](CCCNC(=N)N)NC(=O)[C@H](C)NC(=O)[C@H](CCCCN)NC(=O)[C@@H](NC(=O)[C@@H](N)CCCCN)[C@@H](C)CC)C(=O)N[C@@H](CC(C)C)C(=O)NCC(=O)N[C@@H](CCCCN)C(=O)N[C@@H](Cc2ccccc2)C(=O)N1)C(=O)N[C@@H](CCCCN)C(=O)N[C@@H](C)C(=O)N[C@@H](CCCNC(=N)N)C(=O)N[C@@H](CC(C)C)C(=O)N[C@@H](CCCCN)C(=O)O [AGM182] (H-KIKARLCLGKFCIKARLK-OH; disulfide 7-12)	2.5	No hemolysis; also recorded: absence of hemolytic activity	did not exhibit any overt phenotype; also recorded: did not have any negative effect on plant phenotype and seed weight	
CC[C@H](C)[C@@H]1NC(=O)CNC(=O)[C@H](CCCNC(=N)N)NC(=O)[C@H](Cc2ccc(O)cc2)NC(=O)[C@@H]2CSSC[C@H](NC1=O)C(=O)N[C@@H](Cc1ccc(O)cc1)C(=O)N[C@@H](CCCNC(=N)N)C(=O)N[C@@H](CCCNC(=N)N)C(=O)N[C@H](C(=O)N[C@@H](CCCNC(=N)N)C(N)=O)CSSC[C@H](NC(=O)[C@H](Cc1c[nH]c3ccccc13)NC(=O)[C@@H](N)CCCCN)C(=O)N[C@@H](Cc1ccccc1)C(=O)N[C@@H](CCCNC(=N)N)C(=O)N[C@@H](C(C)C)C(=O)N2 [tachyplesin1, reference compound] (H-KWCFRVCYRGICYRRCR-NH2; disulfide 3-16, 7-12)	12.5			
Triton-X [reference compound]				100
